Laboratory results taken from patent US20230167073A1 (Teijin Pharma Limited, priority 2020, published 2023).

The molecules below were run against T1, Human TRPC6 (Homo sapiens, UniProt Q9Y210) (assay: Evaluation of TRPC6 channel inhibitory activity (1), FLIPR Calcium 5 Assay Kit, OAG stimulation (Compound Nos. 1-1293)). Settings: not given.
T1 construct: expressed in transfected cells
T1 sequence (Q9Y210 1-931): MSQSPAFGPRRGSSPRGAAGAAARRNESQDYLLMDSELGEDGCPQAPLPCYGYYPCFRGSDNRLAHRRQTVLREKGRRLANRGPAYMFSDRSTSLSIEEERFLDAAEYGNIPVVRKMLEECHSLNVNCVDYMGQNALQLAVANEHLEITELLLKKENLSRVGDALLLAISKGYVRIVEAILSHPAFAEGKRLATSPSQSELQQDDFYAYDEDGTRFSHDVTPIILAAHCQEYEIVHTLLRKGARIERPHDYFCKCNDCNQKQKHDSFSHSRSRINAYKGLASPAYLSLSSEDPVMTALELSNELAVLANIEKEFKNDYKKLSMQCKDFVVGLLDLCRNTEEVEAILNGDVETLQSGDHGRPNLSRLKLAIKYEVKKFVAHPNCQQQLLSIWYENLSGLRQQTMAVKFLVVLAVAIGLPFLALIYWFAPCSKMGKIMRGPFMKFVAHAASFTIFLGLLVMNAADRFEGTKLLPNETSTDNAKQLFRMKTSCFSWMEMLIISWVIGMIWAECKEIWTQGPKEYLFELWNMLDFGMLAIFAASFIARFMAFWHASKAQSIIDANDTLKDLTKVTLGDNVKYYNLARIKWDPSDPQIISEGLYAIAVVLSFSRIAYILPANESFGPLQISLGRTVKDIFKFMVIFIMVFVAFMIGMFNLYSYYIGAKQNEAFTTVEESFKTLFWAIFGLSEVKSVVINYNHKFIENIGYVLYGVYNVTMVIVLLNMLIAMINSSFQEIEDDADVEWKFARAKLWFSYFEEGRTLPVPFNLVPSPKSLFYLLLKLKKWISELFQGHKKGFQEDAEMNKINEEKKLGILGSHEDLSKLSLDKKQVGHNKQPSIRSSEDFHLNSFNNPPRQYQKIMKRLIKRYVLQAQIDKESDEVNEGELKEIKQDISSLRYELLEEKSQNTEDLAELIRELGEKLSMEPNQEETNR
Assay type: cell-based
Summary of the method: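 Readout is pIC50 from four-parameter logistic fitting of inhibition of the OAG-evoked (30 μM final) fluorescence calcium signal. Human TRPC6 stable cells are dye-loaded with probenecid, and compound is applied 20 min ahead of agonist.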

Structure (SMILES) | IC50 [nM]
N#Cc1ccc(-c2ncc(CCN)cn2)c(Oc2cc(N3C4CCC3CC4)ncc2C#N)c1 [compound 748, 4-[2-[5-(2-aminoethyl)pyrimidin-2-yl]-5-cyanophenoxy]-6-(7-azabicyclo[2.2.1]heptan-7-yl)pyridine-3-carbomtrile] | < 10
N#Cc1ccc(-c2ncc(CN)cn2)c(Oc2cc(N3C4CCC3CC4)ncc2C#N)c1 [compound 749, 4-[2-[5-(aminomethyl)pyrimidin-2-yl]-5-cyanophenoxy]-6-(7-azabicyclo[2.2.1]heptan-7-yl)pyridine-3-carbonitrile] | 10 to 1000
N#Cc1ccc(-c2ncc(CCN)cn2)c(Oc2ccc(N3C4CCC3CC4)nc2)c1 [compound 752, 4-[5-(2-aminoethyl)pyrimidin-2-yl]-3-[6-(7-azabicyclo[2.2.1]heptan-7-yl)pyridin-3-yl]oxybenzonitrile] | 10 to 1000
N#Cc1ccc(-c2ncc(CCN)cn2)c(Oc2nnc(N3C4CCC3CC4)s2)c1 [compound 767, 4-[5-(2-aminoethyl)pyrimidin-2-yl]-3-[[5-(7-azabicyclo[2.2.1]heptan-7-yl)-1,3,4-thiadiazol-2-yl]oxy]benzonitrile] | < 10

Same assay, conditions: Human TRPC6 stably-expressing cells, OAG 30 μM, FLIPR Calcium 5 Assay Kit; read-out: Inhibitory activity (pIC50 class) (converted)

Structure (SMILES) | IC50 [nM]
Cn1nc(-c2ccccn2)cc1Oc1cc(C#N)ccc1-c1cc(CN)cn2ccnc12 [compound 737, 4-[6-(aminomethyl)imidazo[1,2-a]pyridin-8-yl]-3-(2-methyl-5-pyridin-2-ylpyrazol-3-yl)oxybenzonitrile] | < 10
N#Cc1ccc(-c2ccc(CC3(N)COC3)cn2)c(Oc2cc(N3CCCC3)ncc2C#N)c1 [compound 738, 4-[2-[5-[(3-aminooxetan-3-yl)methyl]pyridin-2-yl]-5-cyanophenoxy]-6-pyrrolidin-1-ylpyridine-3-carbonitrile] | 10 to 1000
N#Cc1ccc(-c2ncc(CCN)cn2)c(Oc2cc(N3CCCC3)ncc2C#N)c1 [compound 739, 4-[2-[5-(2-aminoethyl)pyrimidin-2-yl]-5-cyanophenoxy]-6-pyrrolidin-1-ylpyridine-3-carbonitrile] | 10 to 1000
N#Cc1ccc(-c2ncc(CN)cn2)c(Oc2cc(N3CCCC3)ncc2C#N)c1 [compound 740, 4-[2-[5-(aminomethyl)pyrimidin-2-yl]-5-cyanophenoxy]-6-pyrrolidin-1-ylpyridine-3-carbonitrile] | > 1000
Cn1nc(N2CCCC2)cc1Oc1cc(C#N)ccc1-c1ccc(CC2(N)COC2)cn1 [compound 741, 4-[5-[(3-aminooxetan-3-yl)methyl]pyridin-2-yl]-3-(2-methyl-5-pyrrolidin-1-ylpyrazol-3-yl)oxybenzonitrile] | 10 to 1000
Cn1nc(N2CCCCC2)cc1Oc1cc(C#N)ccc1-c1ccc(CC2(N)COC2)cn1 [compound 742, 4-[5-[(3-aminooxetan-3-yl)methyl]pyridin-2-yl]-3-(2-methyl-5-piperidin-1-ylpyrazol-3-yl)oxybenzonitrile] | < 10
CN(C)c1cc(Oc2cc(C#N)ccc2-c2ccc(CC3(N)COC3)cn2)n(C)n1 [compound 743, 4-[5-[(3-aminooxetan-3-yl)methyl]pyridin-2-yl]-3-[5-(dimethylamino)-2-methylpyrazol-3-yl]oxybenzonitrile] | < 10
Cc1nc(Oc2cc(C#N)ccc2-n2cc3c(n2)CCNC3)cc(N2CCCCC2)n1 [compound 744, 3-(2-methyl-6-piperidin-1-ylpyrimidin-4-yl)oxy-4-(4,5,6,7-tetrahydropyrazolo[4,3-c]pyridin-2-yl)benzonitrile] | 10 to 1000
N#Cc1ccc(-c2ncc(CN)cn2)c(Oc2ccc(N3C4CCC3CC4)nc2)c1 [compound 753, 4-[5-(aminomethyl)pyrimidin-2-yl]-3-[6-(7-azabicyclo[2.2.1]heptan-7-yl)pyridin-3-yl]oxybenzonitrile] | > 1000

Second part, the molecule after the results:

IC50 [nM] | Structure (SMILES)
> 1000 | Cc1nc(Oc2cc(C#N)ccc2-n2ncc3c2CCNC3)cc(N2CCCCC2)n1 [compound 745, 3-(2-methyl-6-piperidin-1-ylpyrimidin-4-yl)oxy-4-(4,5,6,7-tetrahydropyrazolo[4,3-c]pyridin-1-yl)benzonitrile]
> 1000 | Cc1nc(Oc2cc(C#N)ccc2-n2cc3c(n2)CNCC3)cc(N2CCCCC2)n1 [compound 746, 3-(2-methyl-6-piperidin-1-ylpyrimidin-4-yl)oxy-4-(4,5,6,7-tetrahydropyrazolo[3,4-c]pyridin-2-yl)benzonitrile]
> 1000 | Cc1nc(Oc2cc(C#N)ccc2-n2ncc3c2CNCC3)cc(N2CCCCC2)n1 [compound 747, 3-(2-methyl-6-piperidin-1-ylpyrimidin-4-yl)oxy-4-(4,5,6,7-tetrahydropyrazolo[3,4-c]pyridin-1-yl)benzonitrile]
10 to 1000 | N#Cc1ccc(-c2ncc(CCN)cn2)c(Oc2ccc(N3CCCC3)nc2)c1 [compound 750, 4-[5-(2-aminoethyl)pyrimidin-2-yl]-3-(6-pyrrolidin-1-ylpyridin-3-yl)oxybenzonitrile]
> 1000 | N#Cc1ccc(-c2ncc(CN)cn2)c(Oc2ccc(N3CCCC3)nc2)c1 [compound 751, 4-[5-(aminomethyl)pyrimidin-2-yl]-3-(6-pyrrolidin-1-ylpyridin-3-yl)oxybenzonitrile]
< 10 | CCN(CC)c1cc(Oc2cc(C#N)ccc2-c2ccc(CCN)cn2)n(C)n1 [compound 754, 4-[5-(2-aminoethyl)pyridin-2-yl]-3-[5-(diethylamino)-2-methylpyrazol-3-yl]oxybenzonitrile]
10 to 1000 | Cn1nc(N2CCCC2=O)cc1Oc1cc(C#N)ccc1-c1ccc(CCN)cn1 [compound 755, 4-[5-(2-aminoethyl)pyridin-2-yl]-3-[2-methyl-5-(2-oxopyrrolidin-1-yl)pyrazol-3-yl]oxybenzonitrile]
> 1000 | Cn1nc(C2CC2)cc1Oc1cc(C#N)ccc1-c1cc(C(=O)N2CCC[C@H](N)C2)cn2ccnc12 [compound 756, 4-[6-[(3S)-3-aminopiperidine-1-carbonyl]imidazo[1,2-a]pyridin-8-yl]-3-(5-cyclopropyl-2-methylpyrazol-3-yl)oxybenzonitrile]
> 1000 | Cn1nc(C2CC2)cc1Oc1cc(C#N)ccc1-c1cc(C(=O)N2CCC[C@@H](N)C2)cn2ccnc12 [compound 757, 4-[6-[(3R)-3-aminopiperidine-1-carbonyl]imidazo[1,2-a]pyridin-8-yl]-3-(5-cyclopropyl-2-methylpyrazol-3-yl)oxybenzonitrile]
< 10 | CC(C)CN(C)c1cc(Oc2cc(C#N)ccc2-c2ncc(CCN)cn2)n(C)n1 [compound 758, 4-[5-(2-aminoethyl)pyrimidin-2-yl]-3-[2-methyl-5-[methyl(2-methylpropyl)amino]pyrazol-3-yl]oxybenzonitrile]
< 10 | CCCN(CCC)c1cc(Oc2cc(C#N)ccc2-c2ncc(CCN)cn2)n(C)n1 [compound 759, 4-[5-(2-aminoethyl)pyrimidin-2-yl]-3-[5-(dipropylamino)-2-methylpyrazol-3-yl]oxybenzonitrile]
< 10 | COCCN(C)c1cc(Oc2cc(C#N)ccc2-c2ncc(CCN)cn2)n(C)n1 [compound 760, 4-[5-(2-aminoethyl)pyrimidin-2-yl]-3-[5-[2-methoxyethyl(methyl)amino]-2-methylpyrazol-3-yl]oxybenzonitrile]
> 1000 | Cn1nc(-c2ccccn2)cc1Oc1cc(C#N)ccc1-c1nc(Cl)c2c(n1)CCNC2 [compound 761]
> 1000 | CN(C)c1nc(-c2ccc(C#N)cc2Oc2cc(-c3ccccn3)nn2C)nc2c1CNCC2 [compound 762, 4-[4-(dimethylamino)-5,6,7,8-tetrahydropyrido[4,3-d]pyrimidin-2-yl]-3-(2-methyl-5-pyridin-2-ylpyrazol-3-yl)oxybenzonitrile]
> 1000 | Cn1nc(C2CC2)cc1Oc1cc(C#N)ccc1-c1nnc2n1CCNC2 [compound 763, 3-(5-cyclopropyl-2-methylpyrazol-3-yl)oxy-4(5,6,7,8-tetrahydro-[1,2,4]triazolo[4,3-a]pyrazin-3-yl)benzonitrile]
10 to 1000 | CC(C)Nc1cc(Oc2cc(C#N)ccc2-c2ncc(CN)cn2)cnn1 [compound 764, 4-[5-(aminomethyl)pyrimidin-2-yl]-3-[6-(propan-2-ylamino)pyridazin-4-yl]oxybenzonitrile]
< 10 | CC(C)CNc1cc(Oc2cc(C#N)ccc2-c2ncc(CN)cn2)cnn1 [compound 765, 4-[5-(aminomethyl)pyrimidin-2-yl]-3-[6-(2-methylpropylamino)pyridazin-4-yl]oxybenzonitrile]
> 1000 | N#Cc1ccc(-c2ncc(CN)cn2)c(Oc2cnnc(NC3COC3)c2)c1 [compound 766, 4-[5-(aminomethyl)pyrimidin-2-yl]-3-[6-(oxetan-3-ylamino)pyridazin-4-yl]oxybenzonitrile]
